Experimental data as given in PubChem BioAssay AID1963420 (Molecular Pharmacology Branch, DTP, NCI, 2024).

System: 494315-158-R-J1-PDC complex spheroid growth, percent test/control
Experiment: Anticancer human tumor 494315-158-R-J1-PDC patient-derived soft tissue sarcoma cell line growth inhibition [Asc]
Details: for IC50: curve of first compound; for viability, T/C: stronger effect = lower value
Description: Multicellular complex tumor spheroid response to apoptosis pathway targeting inhibitors Alrizomadlin, Pelcitoclax, and Dasminapant in combination with a variety of drugs and investigational agents in selected tumor cell lines
The MDM2 inhibitor alrizomadlin, the Bcl-2/Bcl-xL inhibitor pelcitoclax, and the IAPs inhibitor dasminapant were evaluated both individually and in combination with standard of care and investigational anticancer small molecules within a complex spheroid model of solid tumors. . Complex spheroids include a stromal component modeled by human endothelial cells (HUVEC) and fibroblasts modeled by human mesenchymal stem cells (MSCs). The concentration ranges selected for each drug and investigational agent were based upon clinically achievable concentrations if the clinical Cmax of the agent was known.
Compounds. The drugs and investigational agents: alrizomadlin (APG-115; NSC831270), pelcitoclax (APG-1252; NSC835773), dasminapant (APG-1387;NSC834197), TAK-243 (NSC785004), copanlisib (NSC809693), olaparib (NSC753686), talazoparib (NSC767125), cobimetinib (NSC 768068), eltanexor (KPT-8602, NSC 794443), abemaciclib (NSC 768073), sotorasib (NSC818433), adagrasib (NSC 831453), MRTX-1133 (NSC 836407), Iadademestat (ORY1001, NSC 806812), and RMC-4630 (NSC839698), were obtained from the NCI Developmental Therapeutics Program Chemical Repository. The FDA-approved anticancer drug set is available from the Developmental Therapeutics Program at https://dtp.cancer.gov/organization/dscb/obtaining/available plates.htm. […] The stock solutions were prepared in dimethyl sulfoxide (DMSO, Sigma-Aldrich, St. Louis, MO, cat. D2650) at 800-fold the tested concentration and stored at -70 degrees C prior to their use. All drugs and investigational agents were tested over a range starting from a high concentration at or near the clinical Cmax and decreasing in half-log increments. If the clinical Cmax for an agent had not been determined, the highest concentration tested was 10 microM.
The patient-derived cancer (PDC) cell lines include five colon adenocarcinomas: 186277-243-T-J2-PDC, 616215-338-R-J1-PDC, 439559-082-T-J2-PDC, 463943-066-T-J2-PDC, and 519858-162-T-J1-PDC; three pancreatic carcinomas: 323965-272-R-J2-PDC, 521955-158-R6-J3-PDC, and 521955-158-R2-J5-PDC; two uterine sarcomas: 327498-152-R-J2-PDC and 993429-296-R-J1-PDC; two rhabdomyosarcomas: 755483-174-R-J1-PDC and 772245-204-R-J1-PDC; two soft tissue sarcomas: 126254-015-R-J1-PDC and 494315-158-R-J1-PDC; two malignant fibrous histiocytomas: 317291-083-R-J1-PDC and 596521-263-R-J1-PDC; two breast carcinomas: 171881-019-R-J1-PDC and 885512-296-R-J2-PDC; and one ovarian carcinoma: 6556581-035-R-J-PDC were obtained from the NCI PDMR, (https://pdmr.cancer.gov). The established cell lines HSSY-2 synovial sarcoma (RRID:CVCL 8719), SYO-1 synovial sarcoma (RRID:CVCL_7146), MPNST malignant peripheral neural sheath tumor were obtained from the Sloan Kettering Institute. The following established cell lines were purchased from the American Type Culture Collection (ATCC, Manassas, VA), Sor the received from the NCI repository:, PANC-1 pancreatic carcinoma (CRL-1469, RRID:CVCL_0480), OVCAR-5 ovarian carcinoma (RRID:CVCL_1628), OVCAR-8 ovarian carcinoma (RRID:CVCL_1629), , MCF-7 breast carcinoma (CRL-12584, RRID:CVCL_0031), MDA-MB-231 breast carcinoma (CRL-12532, RRID:CVCL_0062), NCI-H1876 small cell lung carcinoma (CRL-5902, RRID:CVCL_1503), NCI-H510A small cell lung carcinoma (HTB-184, RRID:CVCL_1565), NCI-H1417 (CRL-5869, RRID:CVCL_1469), and NCI-H196 small cell lung carcinoma (CRL-5823, RRID:CVCL_1509). Dr. Peter Houghton (Greehey Children's Cancer Research Institute, University of Texas Health Science Center, San Antonio, TX) provided Rh-18 rhabdomyosarcoma (RRID:CVCL_1659). Pooled donor human umbilical vein endothelial cells (HUVEC, Lonza, cat. CC-2519) and human mesenchymal stem cells (hMSC, Lonza, cat. PT-2501) were purchased from Lonza (Walkersville, MD).
Cell Culture. […]
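Further: compound exposure lasted seven days after spheroids formed for three days.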

With O=C(c1cc(Cc2n[nH]c(=O)c3ccccc23)ccc1F)N1CCN(C(=O)C2CC2)CC1 + CCN1C(C(=O)NC23CCC(C(=O)O)(CC2)CC3)C(c2cccc(Cl)c2F)C2(C(=O)Nc3cc(Cl)ccc32)C12CCCCC2 the IC50 (second compound 0.03 µM) was greater than 10 µM, the IC50 (second compound 0.0949 µM) was greater than 10 µM and the IC50 (second compound 0.3 µM) was greater than 10 µM. For the same compound, the IC50 (second compound 0.949 µM) was greater than 10 µM, the IC50 (second compound 3 µM) was greater than 10 µM and the viability, T/C (second compound 0.03 µM, first compound 0.0316 µM) was 97.3%. The viability, T/C (second compound 0.03 µM, first compound 0.1 µM) was 109%, the viability, T/C (second compound 0.03 µM, first compound 0.316 µM) was 94% and the viability, T/C (second compound 0.03 µM, first compound 1 µM) was 94.6%. For the same compound, the viability, T/C (second compound 0.03 µM, first compound 3.16 µM) was 80.4%, the viability, T/C (second compound 0.03 µM, first compound 10 µM) was 51.2% and the viability, T/C (second compound 0.0949 µM, first compound 0.0316 µM) was 107%. It also gave a viability, T/C (second compound 0.0949 µM, first compound 0.1 µM) of 107%, a viability, T/C (second compound 0.0949 µM, first compound 0.316 µM) of 96.8% and a viability, T/C (second compound 0.0949 µM, first compound 1 µM) of 93.8%. For the same compound, the viability, T/C (second compound 0.0949 µM, first compound 3.16 µM) was 74.3%, the viability, T/C (second compound 0.0949 µM, first compound 10 µM) was 50.4% and the viability, T/C (second compound 0.3 µM, first compound 0.0316 µM) was 97.6%. The viability, T/C (second compound 0.3 µM, first compound 0.1 µM) was 103%, the viability, T/C (second compound 0.3 µM, first compound 0.316 µM) was 95.2% and the viability, T/C (second compound 0.3 µM, first compound 1 µM) was 79.1%. The viability, T/C (second compound 0.3 µM, first compound 3.16 µM) was 74.5%, the viability, T/C (second compound 0.3 µM, first compound 10 µM) was 53% and the viability, T/C (second compound 0.949 µM, first compound 0.0316 µM) was 109%. The viability, T/C (second compound 0.949 µM, first compound 0.1 µM) was 90.2%, the viability, T/C (second compound 0.949 µM, first compound 0.316 µM) was 92.5% and the viability, T/C (second compound 0.949 µM, first compound 1 µM) was 95.9%. The viability, T/C (second compound 0.949 µM, first compound 3.16 µM) was 73.9%, the viability, T/C (second compound 0.949 µM, first compound 10 µM) was 52% and the viability, T/C (second compound 3 µM, first compound 0.0316 µM) was 90.3%. It also gave a viability, T/C (second compound 3 µM, first compound 0.1 µM) of 83.9%, a viability, T/C (second compound 3 µM, first compound 0.316 µM) of 85% and a viability, T/C (second compound 3 µM, first compound 1 µM) of 91.9%. The viability, T/C (second compound 3 µM, first compound 3.16 µM) was 81.9% and the viability, T/C (second compound 3 µM, first compound 10 µM) was 51%.
